This passage reports inhibition and Retention_time results from ChEMBL document CHEMBL5370675, “Identification of HuR-RNA Interfering Compounds by Dynamic Combinatorial Chemistry and Fluorescence Polarization” (ACS Med Chem Lett, 2023).

Calls of active or inactive are those of the source. No cut-off for these calls is given here.

Data set [1] has as its target ELAV-like protein 1 (Homo sapiens) (UniProt Q15717). In words: Inhibition of HuR (unknown origin) assessed as reduction in protein-mRNA interaction at 0.5 to 100 uM preincubated for 1 hr followed by mRNA addition and measured after 1.5 hrs by fluorescence polarization assay. Conditions: dose 0.5-100 µM, time 2.5 hrs. In general terms: Fluorescence polarisation rises when a labelled molecule tumbles more slowly, as on binding a larger partner.

Data set [2] is described as follows: Retention time of the compound in acetate buffer by HPLC-UV analysis. Type of data set: physicochemical.

Sequence of ELAV-like protein 1 (Homo sapiens) (Q15717 whole entry): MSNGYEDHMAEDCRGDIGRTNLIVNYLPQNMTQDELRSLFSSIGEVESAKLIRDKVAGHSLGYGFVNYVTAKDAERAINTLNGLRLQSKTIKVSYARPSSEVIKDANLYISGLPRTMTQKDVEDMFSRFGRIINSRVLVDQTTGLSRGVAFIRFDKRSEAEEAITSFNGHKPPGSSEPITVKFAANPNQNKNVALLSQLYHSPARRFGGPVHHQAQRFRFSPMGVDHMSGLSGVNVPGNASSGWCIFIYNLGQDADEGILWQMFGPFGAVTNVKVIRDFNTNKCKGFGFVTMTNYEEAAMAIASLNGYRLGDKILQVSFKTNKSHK

`O=C(COc1ccc(Cl)cc1Cl)N/N=C/c1csc(Br)n1`: the inhibition result in data set [1] is “Active”. The Retention_time in data set [2] is recorded as 12.86 min.

In the case of `Cc1cccc(Cn2nc(C(C)(C)C)cc2C(=O)N/N=C/c2ccc3cn[nH]c3c2)c1`, the inhibition entry in data set [1] was “Active”.

With `Cc1cccc(Cn2nc(C(C)(C)C)cc2C(=O)N/N=C/c2csc(Br)n2)c1`, in data set [1], the inhibition entry was “Active”.
